According to US20100216875A1, “METHODS OF TREATING ALZHEIMER'S DISEASE” (priority 2006, published 2010):

What was measured:
APPswe/In mice [1] = assay: amyloid load, Aβ, CTFβ and sAPPα in APPswe/In mice; format: in vivo, mouse; conditions: Mean + % SEM
Method: (§1) Cathepsin B inhibitors were also evaluated in another transgenic mouse that expressed human APP containing both the Swedish mutant β-secretase and the London γ-secretase site (APPswe/In).
The mouse model of AD expressing human APP containing the Swe mutant β-secretase site and the London mutation (APPswe/In) also overproduce Aβ, and develop neuropathology and behavior that mimic AD. APPswe/In was generated by site-directed mutagenesis at the β-secretase site of the APPIn to convert Lys-Met to the mutant Asn-Leu. Both APPswe/In and APPIn mouse strains were created in a C57BL/6 mouse background using the Thy-1.2 expression cassette driven by the Thy-1 promoter containing an SV40 polyadenylation site. The APPswe/In mice differ from the APPIn in that APPswe/In mice contain the Swedish mutant β-secretase site rather than the wt β-secretase site found in APPIn.
Direct icy infusion into the brain was the first route of administration to be tested to establish the effectiveness of reversible inhibitors in the brain to provide cognitive improvement, and reduction in brain Aβ peptides and amyloid plaques. Icy infusion was performed as described above for the irreversible inhibitors with use of the Alzet minipump. The initial dose utilized was the same dosage used for E64d and CA074Me in the APPIn mice or APPswe/In mice Administration of these compounds began at approximately 1-2 months of age and infusion was conducted for periods of 1, 2, 4, and 8 months (or other time periods). Administration of the select reversible compounds by direct icy infusion into mouse brains was conducted initially at 0.025 μl/hr of 1 mg/ml, other doses may be examined based on results with the first dose. Each time point was conducted with about 8-10 animals and 8-10 normal control animals (age-matched) (or greater number of mice per treatment group, if necessary, for appropriate statistical evaluation). At the end of each of these infusion periods, cognitive testing and assessment of Aβ peptide levels with plaque pathology was evaluated. At each of these time points, mice were tested for cognition, and then sacrificed for evaluation of Aβ and neuropathology in the brain
After behavioral testing was completed, the mice were sacrificed for analyses of Aβ40 and Aβ42 peptide levels, and neuropathology. One half brain (one hemisphere) was utilized to prepare brain extracts for measurement of Aβ40 and Aβ42 levels by ELISA assays, and the other half brain was used for neuropathological evaluation. Procedures for preparation of brain extracts and ELISA assays for Aβ peptides are those used for analyses of guinea pig brains
Aβ-related neuropathology was assessed in cortex and hippocampus of brains. The relative extent of Aβ immunoreactivity in neurons and glial cells was assessed. Immunostaining for Aβ was conducted as described previously (58) Aβ-related neuropathology was assessed in cortex and hippocampus of brains, as well as other regions of the brain as controls. Brain tissue was fixed in 4% paraformaldehyde overnight, and then processed to paraffin. Serial sections were obtained, deparaffinized and washed in TBS buffer. Each section was blocked with appropriate normal serum (mouse or rabbit), and subjected to primary anti-Aβ antibody for detection of amyloid deposits. Sections were then stained with DAB ([…]) with the Vector ABC Elite kit (Vector Laboratories). Amyloid areas were imaged with microscopic computer-assisted analysis system using the NIH Image Analysis Software.

aspartyl protease, BACE1 = aspartyl protease, BACE1 (Homo sapiens, UniProt P56817); assay: effect on BACE1; format: biochemical
aspartyl protease, BACE1, sequence (P56817 46-501): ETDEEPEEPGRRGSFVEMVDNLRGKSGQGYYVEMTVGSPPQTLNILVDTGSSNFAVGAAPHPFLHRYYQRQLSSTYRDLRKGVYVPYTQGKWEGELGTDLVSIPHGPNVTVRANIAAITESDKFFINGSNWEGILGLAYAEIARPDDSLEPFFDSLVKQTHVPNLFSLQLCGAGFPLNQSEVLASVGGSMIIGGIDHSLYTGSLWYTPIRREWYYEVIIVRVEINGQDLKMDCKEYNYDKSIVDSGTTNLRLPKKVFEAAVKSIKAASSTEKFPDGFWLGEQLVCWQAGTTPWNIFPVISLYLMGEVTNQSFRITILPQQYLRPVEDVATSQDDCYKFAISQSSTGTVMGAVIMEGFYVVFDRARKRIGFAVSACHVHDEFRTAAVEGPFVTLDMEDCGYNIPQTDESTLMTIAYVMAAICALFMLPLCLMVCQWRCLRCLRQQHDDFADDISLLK

APPswe/In mice [2] = assay: Morris water maze test in APPswe/In mice; format: in vivo, mouse; conditions: Mean + % SEM; for Latency Period: same treatment as APPIn mice
Method: as §1
The status of memory impairment in the APPIn or APPswe/In mice with and without administration of select compounds was assessed by the Morris water maze test. The water maze test is widely used in mouse AD animal models to evaluate cognitive impairment in such AD models. Water maze tests were conducted as previously described (87-89).
Drug-treated and vehicle-treated mice were tested in the Morris water maze test. Mice were trained in a 1.2 meter open field water maze. The pool was filled to a depth of 30 cm with water and maintained at 25° C. The escape platform (10 cm square) was placed 1 cm below the surface of the water. During the trials, the platform was removed from the pool. The cued test was carried out in the pool surrounded with white curtains to hide any extra-maze cues. Aβ animals underwent non-spatial pretraining (NSP) for three consecutive days. These trials were to prepare the animals for the final behavioral test to determine whether there was sufficient retention of memory to find the platform. These trials were not recorded since they were for training purposes only. For the training and learning studies, the curtains were removed to extra maze cues to allow identification of animals with swimming impairments. On day 1, the mice were placed on the hidden platform for 20 seconds (trial 1), for trials 2-3 animals were released in the water at a distance of 10 cm from the cued-platform or hidden platform (trial 4) and allowed to swim to the platform. On the second day of trails, the hidden platform was moved randomly between the center of the pool and the center of each quadrant. The animals were released into the pool, randomly facing the wall and were allowed 60 seconds to reach the platform (3 trials). In the third trial, animals were given three trials, two with a hidden platform and one with a cued platform. Two days following the NSP, the animals were subjected to final behavioral trials (Morris water maze test). For these trials (3 per animal), the platform was placed in the center of one quadrant of the pool and the animals were released facing the wall in a random fashion. Each animal was allowed to find the platform or swim for 60 seconds (latency period, the time it takes to find the platform). Aβ animals were tested within 4-6 hours of dosing and were randomly selected for testing by an operator blinded to the test group.

Row | SMILES | Amyloid load (APPswe/In mice [1]) | Aβ40 (APPswe/In mice [1]) | Aβ42 (APPswe/In mice [1]) | CTFβ (APPswe/In mice [1]) | sAPPα (APPswe/In mice [1]) | effect on BACE1 (aspartyl protease, BACE1) | Distance Traveled (APPswe/In mice [2]) | Latency Period (APPswe/In mice [2])
1 | CCCNC(=O)[C@H]1O[C@@H]1C(=O)N[C@H](C(=O)N1CCC[C@H]1C(=O)OC)[C@@H](C)CC [CA074Me] | 1.07 + 4% | 91 + 4% | 97 + 3% | 97 + 3% | 101 + 4% | do not affect | 246 + 13% | 37 + 12%
2 | CCOC(=O)[C@H]1O[C@@H]1C(=O)N[C@@H](CC(C)C)C(=O)NCCC(C)C [E64d] | 1.06 + 4% | 92 + 7% | 101 + 3% | 100 + 3% | 98 + 3% | do not affect | 270 + 12% | 40 + 10%
